Experimental findings from BindingDB's records for doi:10.1016/j.ejmech.2017.04.079 (Harvard Medical School, 2017) are described below.

Assay [1] is described as follows: Inhibition of EML4/ALK (unknown origin) transfected in mouse BAF3 cells assessed as reduction in cell viability after 72 hrs by MTS assay. For orientation: Tetrazolium assays rely on reduction of a dye to a coloured formazan, in cell work by metabolically active cells.
The nature of assay [2]: Inhibition of EGFR L858R mutant (unknown origin) transfected in mouse BAF3 cells assessed as reduction in cell viability after 72 hrs by MTS assay.
A short description of assay [3]: Inhibition of EGFR T790M/L858R double mutant (unknown origin) transfected in mouse BAF3 cells assessed as reduction in cell viability after 72 hrs by MTS assay.

By EC50 is commonly meant the concentration giving half of the maximal effect.

Regarding `C=CC(=O)Nc1cc(Nc2nccc(-c3cn(C)c4ccccc34)n2)c(OC)cc1N(C)CCN(C)C` [AZD-9291], the EC50 in assay [1] was 1.75 µM.

Take `C=CC(=O)Nc1cc(Nc2nccc(Nc3ccccc3P(C)(C)=O)n2)c(OC)cc1N(C)CCN(C)C`: the EC50 in assay [1] is greater than 5 µM.

For the compound `CCC(=O)Nc1cc(Nc2ncc(Cl)c(Nc3ccccc3S(=O)(=O)C(C)C)n2)c(OC)cc1N(C)CCN(C)C`, the EC50 turned out to be 666 nM in assay [2] and 972 nM in assay [3].

Take `C=CC(=O)Nc1cccc(Oc2nc(Nc3ccc(N4CCN(C)CC4)cc3OC)ncc2Cl)c1`: the EC50 in assay [1] turned out to be 6.26 µM.
